Assay results published in PMC6333907, “Oligopeptide Signaling through TbGPR89 Drives Trypanosome Quorum Sensing” (Cell, 2019).

Target: T1, YjdL (Escherichia coli, UniProt P39276)
T1 construct: gene dtpC; pET28a-YjdL, His-tag vector, overexpressed in whole E. coli BL21-CodonPlus (DE3)-RIPL cells
T1 sequence (P39276 1-485): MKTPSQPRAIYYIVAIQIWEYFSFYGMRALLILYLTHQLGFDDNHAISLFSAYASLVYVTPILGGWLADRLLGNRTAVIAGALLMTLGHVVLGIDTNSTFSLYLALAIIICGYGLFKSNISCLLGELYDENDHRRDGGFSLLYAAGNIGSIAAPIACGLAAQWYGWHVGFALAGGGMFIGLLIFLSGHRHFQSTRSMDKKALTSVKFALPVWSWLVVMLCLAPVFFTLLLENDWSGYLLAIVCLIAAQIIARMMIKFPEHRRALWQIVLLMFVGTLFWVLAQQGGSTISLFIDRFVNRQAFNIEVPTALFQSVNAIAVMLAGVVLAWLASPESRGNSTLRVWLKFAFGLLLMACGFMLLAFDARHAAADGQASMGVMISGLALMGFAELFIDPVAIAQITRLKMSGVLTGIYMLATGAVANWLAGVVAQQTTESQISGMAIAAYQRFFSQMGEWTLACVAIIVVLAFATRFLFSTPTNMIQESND
Assay: fluorescent dipeptide uptake in E. coli expressing the protein
Assay type: cell-based
Conditions: pH 6.5, 37 °C, 15-20 min; printed final 500 μM (1.5 μl of 20 mM in 100 μl); labelled compound

Cc1c(CC(=O)NCCCC[C@H](NC(=O)CCN)C(=O)O)c(=O)oc2cc(N)ccc12 [β-Ala-Lys-AMCA]
fluorescent dipeptide uptake in E. coli expressing the protein: Relative uptake of fluorescent dipeptide β-ALA-Lys-AMCA in E. coli induced (+IPTG)
